What was measured:
[1] = system: lens proteins; assay: Lens proteins of high energy diet fed sand rats (total protein, Trx, TrxR, actin, Msr activity, ferritin); type: in vivo, sand rat (Psammomis obesus)
Experimental: Ferritin concentration was quantified using an indirect ‘sandwich’ ELISA assay in accordance with a procedure developed previously in our laboratory. Briefly, ELISA 96-well micro plates were pre-coated with goat anti-human L-ferritin antibody. Rabbit anti-human H-ferritin was used as the secondary antibody. Plates were treated with goat anti-rabbit IgG conjugated with β-galactosidase. Chlorophenol Red-β-D-Galactopyranoside was then added and the plates analyzed using a microplate reader with a test (570 nm) and reference (630 nm) filters.
Quantification of the activity of methionine-sulfoxide reductase (Msr) was carried out by incubation the tissue lysates with dabsyl-methionine sulfoxide for 30 min at 37° C., followed by analysis of the reduced product (dabsyl methionine) by HPLC-spectrophotometric detection at 436 nm Assay: total volume 100 μl, including 200 μM Dabsyl-met (O) (as a substrate). The reaction mixture contained also 20 mM DTT, buffer, ˜100 μg protein. The incubation (reaction) was stopped by adding 100 μl of acetonitrile, spinning down, and discarding the protein fraction. The chromatography was run on a 150 mm 3 μm C-18 column, using a gradient (A to B). A=19 g of sodium acetate, pH 6.0 plus 0.5 ml of triethylamine, in one liter of solution; B=acetonitrile (pure). The substrate, dabsyl-Met (0) was prepared as described [Moskovitz, J. et al. (2001) Proc Natl Acad Sci USA, 98 (23): p. 12920-5; Moskowitz et al. (1997) Proc Natl Acad Sci USA, 94 (18): p. 9585-93].
(§1) Nineteen sand rats were divided into three groups. Group I (n=4) received a standard diet and was used as a control. Groups II (n=7) and III (n=8) received a high energy diet, leading to diabetes development. Group III was treated with 2.5 mg Zn-DFO i.p. per kg body weight three times a week, while Group II was injected with saline according to the same pattern. After the blood glucose and body weight monitoring for 63 days, glucose tolerance test was performed and blood level of 2,3-DHBA and catechols was also measured. As previously done, cataract formation was tested as well. The retina and lens were collected for biochemical analysis of the concentration of ferritin, thioredoxin-1 (Trx) and thioredoxin reductase-1 (TrxR), total lens protein and methionine sulfoxide reductase (Msr) activity. The concentration of actin, Trx and TrxR were measured by Western Blotting, and the activity of Msr was analyzed by HPLC as described.

[2] = system: salicylate hydroxylation to 2,3-DHBA; assay: 2,3-DHBA assay in blood of high energy diet fed sand rats; type: in vivo, sand rat (Psammomis obesus); settings: 2.5 mg/kg i.p. three times a week
Experimental: To measure 2,3-DHBA the animals were injected i.p. with 100 mg/kg salicylate in saline buffer. As a product of salicylate hydroxylation, the 2,3-DHBA was quantified using HPLC coupled with electrochemical detection (HPLC-ECD), using a Varian 5000 liquid chromatograph (Varian Analytical Instruments, Walnut Creek, Calif., USA) equipped with a Rheodyne 7125 sample injector (20 μl loop; Rheodyne L. P., Rohnert Park, Calif., USA). The column used for separation of salicylate and DHBA was a 250×4 mm LiChrospher 100RP-18, 5 μm (Merck, Darmstadt, Germany). The chromatograms were recorded using a PC-based data acquisition and processing system (EZChrom Elite, San-Ramon, Calif., USA).
as §1, with “The retina and lens were collected for biochemical analysis of the concentration of ferritin, thioredoxin-1 (Trx) and thioredoxin reductase-1 (TrxR), total lens protein and methionine sulfoxide reductase (Msr) activity.” left out

[3] = system: high energy diet-induced Type II diabetes; assay: Sand rat high energy diet Type II diabetes model, glucose tolerance test and cataract formation (Example 6); type: in vivo, sand rat (Psammomis obesus)
Source text: Sand rats (Psammomis Obesus) were used as a model for Type 2 diabetes. The sand rats transferred onto high energy diet develop a severe form of Type 2 diabetes, including high blood glucose level, increase in body weight, and cataract development (eye lens opacification).
The sand rats were divided into groups. The animals from the Group I received the standard diet, serving as a control, whereas animals from the other indicated groups received high energy diet, leading to diabetes development. The high-energy diet ed mice were either untreated, or treated with intra-peritoneal injections of 2.5 mg/kg body weight Ga-DFO, Zn-DFO, DFO alone, Zn, Ga or lipoic acid (LA), either twice or three times per week, as indicated, for the duration of the experiment. The blood glucose and body weight of the animals were monitored throughout the experiment.
Forty two sand rats were divided into seven groups, six animals in each. The animals from Group I received the standard diet and used as a control. The animals from the Groups II, III, IV, V, VI and VII received high energy diet, leading to diabetes development, while Groups III, IV and VII were treated with Zn-DFO, Ga-DFO and DFO alone, respectively. The Groups V and VI received Zn and Ga, in their chloride salt form, alone respectively. Administration of the different treatments was as described, and the experiment lasted for 53 days. Glucose tolerance test was performed at the end of experiment. The cataract formation was tested as well.

[4] = system: high energy diet-induced Type II diabetes; assay: Sand rat high energy diet Type II diabetes model, body weight, blood glucose, glucose tolerance, cataract (Example 7); type: in vivo, sand rat (Psammomis obesus)
[5] = complex of desferrioxamine with the named metal ion; cited from earlier work
[6] = pH limit of the complex solution during preparation (loss of biological activities); type: physicochemical; settings: pH above 6.1; solution reacts with air-containing CO2
[7] = Western Blotting, diabetes-induced decrease

CC(=O)N(O)CCCCCNC(=O)CCC(=O)N([O-])CCCCCNC(=O)CCC(=O)N([O-])CCCCCN.[Zn+2] [Zn-DFO, Zinc-desferrioxamine]
lens Msr activity ([1]; HPLC, diabetes-induced decrease): partial, but statistically significant restoration
lens concentration of Trx [1, 7]: partial, but statistically significant restoration
lens concentration of TrxR [1, 7]: partial, but statistically significant restoration
lens concentration of actin [1, 7]: partial, but statistically significant restoration
total lens protein concentration (Bradford assay) ([1]; diabetes-induced decrease): partly prevented this decrease
decrease in lens ferritin level ([1]; versus diabetic animals): 3.8 fold
2,3-DHBA blood concentration [2]: maintained almost baseline values
three hours response to an orally-administered glucose dose, value above the zero (standard diet Group I) ([3]; 200 mg glucose per 100 g body weight, end of 53 day experiment, high energy diet): 20 mg/dL
Cataract formation ([3]; high energy diet (HE) sand rats, 53 days): 22%
blood glucose value ([4]; day 28, high energy diet, 2.5 mg/kg i.p. three times a week): 200 mg/dL
body weight gain ([4]; high energy diet, 2.5 mg/kg i.p. three times a week, 63 days): gained weight moderately
blood glucose value ([4]; toward the end of experiment, high energy diet, 2.5 mg/kg i.p. three times a week): 110 mg/dL
animals that did not develop cataract ([4]; treated group (Group III)): four
animals with grade 1-2 cataract in both eyes ([4]; treated group (Group III)): Two
animals with severe (grade 3) cataract ([4]; treated group (Group III)): one
glucose tolerance test, integration of total glucose levels ([4]; versus Group I (standard diet)): insignificantly higher value than Group I
relative stability constants for the complexes of desferrioxamine [5]: 10^11
effect of higher pH on the Zn-DFO solution [6]: marked loss of the biological activities

— patent US9770430B2, “Desferrioxamine-metal complexes for the treatment of immune-related disorders” (priority 2009, dated 2017)
